One block for each molecule: values may come before it.
Tests used:
human CCR2 [1] = target: T1, human CCR2 (Homo sapiens, UniProt P41597); assay: [3H]-CCR2-RA-[R] displacement binding assay on U2OS-CCR2 membranes; conditions: for displacement at 1 μM (%) / pKi ± SEM: CCR2; for displacement at 1 μM (%): [3H]-CCR2-RA-[R] displacement by 1 μM compound, mean of two experiments; for pKi ± SEM: [3H]-CCR2-RA-[R] binding, U2OS membranes, 25 °C
T1 sequence (P41597 1-360 isoform P41597-2): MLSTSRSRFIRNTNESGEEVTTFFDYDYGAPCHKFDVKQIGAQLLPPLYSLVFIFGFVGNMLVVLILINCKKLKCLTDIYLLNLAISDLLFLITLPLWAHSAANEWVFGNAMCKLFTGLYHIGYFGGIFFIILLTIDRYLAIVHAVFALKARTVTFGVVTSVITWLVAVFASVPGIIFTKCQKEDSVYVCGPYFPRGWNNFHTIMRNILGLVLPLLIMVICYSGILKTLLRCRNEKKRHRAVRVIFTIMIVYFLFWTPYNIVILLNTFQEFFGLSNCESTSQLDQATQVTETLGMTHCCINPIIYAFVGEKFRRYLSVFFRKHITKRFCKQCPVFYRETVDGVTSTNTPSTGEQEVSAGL

human CCR1 [2] = target: T2, human CCR1 (Homo sapiens, UniProt P32246); assay: [3H]-CCR2-RA-[R] displacement binding assay on U2OS-CCR1 membranes; conditions: for displacement of [3H]-CCR2-RA-[R] from CCR1 (in words): concentration-dependent
T2 sequence (P32246 1-355): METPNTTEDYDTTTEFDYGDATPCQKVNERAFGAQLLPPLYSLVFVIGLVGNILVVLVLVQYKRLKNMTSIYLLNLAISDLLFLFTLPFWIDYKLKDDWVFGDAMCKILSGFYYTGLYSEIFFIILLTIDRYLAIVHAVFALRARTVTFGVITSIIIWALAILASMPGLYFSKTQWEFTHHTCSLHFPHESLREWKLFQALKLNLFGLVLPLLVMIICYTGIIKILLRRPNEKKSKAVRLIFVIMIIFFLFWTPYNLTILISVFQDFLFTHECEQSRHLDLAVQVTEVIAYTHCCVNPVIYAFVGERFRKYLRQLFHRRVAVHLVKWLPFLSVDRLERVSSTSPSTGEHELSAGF

human CCR1 [3] = target: T2, human CCR1; assay: [35S]GTPγS binding assay on U2OS-CCR1 membranes; assay type: biochemical; conditions: for Hill slope, CCR1: CCL3-induced, 8 nM CCL3
human CCR1 [4] = target: T2, human CCR1; assay: Inhibition of basal [35S]GTPγS binding in absence of CCL3 in U2OS-CCR1; assay type: biochemical; conditions: for fold higher potency as inverse agonist than as antagonist: CCR1, absence versus presence of CCL3; for fold difference between functional and binding assays: CCR1, [35S]GTPγS potency (absence or presence of CCL3) versus binding affinity
human CCR2 [5] = target: T1, human CCR2; assay: [35S]GTPγS binding assay on U2OS-CCR2 membranes; assay type: biochemical; conditions: for Hill slope, CCR2: CCL2-induced, 20 nM CCL2
[6] = CCR1, [3H]-CCR2-RA-[R] binding, U2OS membranes, 25 °C

Molecule: COc1ccc(C2C(C(C)=O)=C(O)C(=O)N2c2ccc(C)cc2)cc1 (stereo not shown) [Compound 11, 4-Acetyl-3-hydroxy-5-(4-methoxyphenyl)-1-(4-methylphenyl)-1,5-dihydro-2H-pyrrol-2-one]
displacement at 1 μM (%) (human CCR2 [1]): 5% (5, 5)

Molecule: CCC(=O)C1=C(O)C(=O)N(c2ccc(C)cc2)C1C1CCCCC1 (stereo not shown) [Compound 18, 5-Cyclohexyl-3-hydroxy-4-propionyl-1-(4-methylphenyl)-1,5-dihydro-2H-pyrrol-2-one]
pKi ± SEM (human CCR1 [2]; [6]): 7.52 ± 0.01

Molecule: CC(=O)C1=C(O)C(=O)N(c2ccc(C)c(C)c2)C1C1CCCCC1 (stereo not shown) [Compound 40, 4-Acetyl-5-cyclohexyl-1-(3,4-dimethylphenyl)-3-hydroxy-1,5-dihydro-2H-pyrrol-2-one]
pKi ± SEM (human CCR1 [2]; [6]): 7.37 ± 0.03
pKi ± SEM (human CCR2 [1]): 7.75 ± 0.02

Molecule: CC(=O)C1=C(O)C(=O)N(c2ccc(Br)cc2)C1C1CCCCC1 (stereo not shown) [Compound 31, 4-Acetyl-1-(4-bromophenyl)-5-cyclohexyl-3-hydroxy-1,5-dihydro-2H-pyrrol-2-one]
Ki (human CCR2 [1]): ~20 nM

Molecule: CC(=O)C1=C(O)C(=O)N(c2ccc(C)cc2)C1c1cccc(C)c1 (stereo not shown) [Compound 14, 4-Acetyl-3-hydroxy-5-(3-methylphenyl)-1-(4-methylphenyl)-1,5-dihydro-2H-pyrrol-2-one]
displacement at 1 μM (%) (human CCR2 [1]): 11% (14, 8)

Molecule: CC(=O)C1=C(O)C(=O)N(c2ccc(Br)cc2F)C1C1CCCCC1 (stereo not shown) [Compound 39, 4-Acetyl-1-(4-bromo-2-fluorophenyl)-5-cyclohexyl-3-hydroxy-1,5-dihydro-2H-pyrrol-2-one]
Hill slope, CCR1 (human CCR1 [3]): –0.62 ± 0.05
fold higher potency as inverse agonist than as antagonist (human CCR1 [4]): 3 fold
Hill slope, CCR2 (human CCR2 [5]): –0.94 ± 0.18

Molecule: CC(=O)C1=C(O)C(=O)N(c2ccc(Cl)cc2)C1C1CCCCC1 (stereo not shown) [Compound 30, 4-Acetyl-1-(4-chlorophenyl)-5-cyclohexyl-3-hydroxy-1,5-dihydro-2H-pyrrol-2-one]
Ki (human CCR2 [1]): ~20 nM
pKi ± SEM (human CCR2 [1]): 7.73 ± 0.08

Molecule: COc1cccc(C2C(C(C)=O)=C(O)C(=O)N2c2ccc(C)cc2)c1 (stereo not shown) [Compound 15, 4-Acetyl-3-hydroxy-5-(3-methoxyphenyl)-1-(4-methylphenyl)-1,5-dihydro-2H-pyrrol-2-one]
displacement at 1 μM (%) (human CCR2 [1]): 0% (3, −3)

Molecule: CCL2: chemokine ligand activating CCR2, purchased from PeproTech
pEC50, stimulation of [35S]GTPγS binding (human CCR2 [5]; U2OS-CCR2): 8.3 ± 0.09
EC50 (human CCR2 [5]; read-out: potency, stimulation of [35S]GTPγS binding, U2OS-CCR2): 5 nM

Molecule: CCOC(=O)C1=C(O)C(=O)N(c2ccc(C)cc2)C1C1CCCCC1 (stereo not shown) [Compound 24, Ethyl 2-Cyclohexyl-4-hydroxy-5-oxo-1-(4-methylphenyl)-2,5-dihydro-1H-pyrrole-3-carboxylate]
displacement at 1 μM (%) (human CCR2 [1]): 31% (36, 26)

Molecule: CC(=O)C1=C(O)C(=O)N(c2ccc(C)cc2)C1c1ccc(C)cc1 (stereo not shown) [Compound 10, 4-Acetyl-3-hydroxy-5-(4-methylphenyl)-1-(4-methylphenyl)-1,5-dihydro-2H-pyrrol-2-one]
displacement at 1 μM (%) (human CCR2 [1]): 36% (42, 31)

Molecule: Cc1ccc(N2C(=O)C(O)=C(C(=O)C3CC3)C2C2CCCCC2)cc1 (stereo not shown) [Compound 22, 5-Cyclohexyl-4-(cyclopropanecarbonyl)-3-hydroxy-1-(4-methylphenyl)-1,5-dihydro-2H-pyrrol-2-one]
selectivity for CCR1 over CCR2 (human CCR1 [2]; from binding affinities): 8 fold

Molecule: CCL3: chemokine ligand activating CCR1, purchased from PeproTech
pEC50, stimulation of [35S]GTPγS binding (human CCR1 [3]; U2OS-CCR1): 8.9 ± 0.06
EC50 (human CCR1 [3]; read-out: potency, stimulation of [35S]GTPγS binding, U2OS-CCR1): 1.3 nM

Molecule: C[C@@H]1CN(Cc2ccc(F)cc2)CCN1C(=O)COc1ccc(Cl)cc1NC(N)=O [BX471]
[3H]-CCR2-RA-[R] specific binding in presence of compound (absence = 100%) (human CCR1 [2]; 10 μM BX471, 6 nM radioligand, U2OS-CCR1): 116 ± 2%
[3H]-CCR2-RA-[R] binding enhanced up to (human CCR1 [2]; U2OS-CCR1, increasing concentrations): up to 120%
displacement of [3H]-CCR2-RA-[R] from CCR1 (in words) (human CCR1 [2]; U2OS-CCR1): not able to displace

Next, values leading:

Ki (human CCR1 [2]; [6]): 138 nM
pKi ± SEM (human CCR1 [2]; [6]): 6.9 ± 0.06
displacement of [3H]-CCR2-RA-[R] from CCR1 (in words) (human CCR1 [2]; U2OS-CCR1): fully displaced
Molecule: COC(=O)c1c(-c2ccno2)[nH]c(=S)n1CCCc1ccc(F)c(F)c1 [JNJ-27141491, (S)-3-[3,4-difluorophenyl)-propyl]-5-isoxazol-5-yl-2-thioxo-2,3-dihydro-1H-imidazole-4-carboxyl acid methyl ester]

pKi ± SEM (human CCR1 [2]; [6]): 7.19 ± 0.02
Molecule: CC(=O)C1=C(O)C(=O)N(c2ccc(Br)cc2F)C1c1cccc(Br)c1 (stereo not shown) [Compound 46, 4-Acetyl-1-(4-bromo-2-fluorophenyl)-5-(3-bromophenyl)-3-hydroxy-1,5-dihydro-2H-pyrrol-2-one]

pKi ± SEM (human CCR1 [2]; [6]): 7.56 ± 0.04
Molecule: O=C(C1=C(O)C(=O)N(c2ccc(Br)cc2F)C1C1CCCCC1)c1ccccc1 (stereo not shown) [Compound 44, 4-Benzoyl-1-(4-bromo-2-fluorophenyl)-5-cyclohexyl-3-hydroxy-1,5-dihydro-2H-pyrrol-2-one]

Hill slope, CCR1 (human CCR1 [3]): –0.73 ± 0.02
pKi ± SEM (human CCR2 [1]): 7.82 ± 0.04
fold difference between functional and binding assays (human CCR1 [4]): more than 130 fold
Hill slope, CCR2 (human CCR2 [5]): –0.80 ± 0.13
Molecule: O=C(C1=C(O)C(=O)N(c2ccc(Br)cc2F)C1C1CCCCC1)C1CC1 (stereo not shown) [Compound 43, 1-(4-Bromo-2-fluorophenyl)-5-cyclohexyl-4-(cyclopropanecarbonyl)-3-hydroxy-1,5-dihydro-2H-pyrrol-2-one]

Hill slope, CCR1 (human CCR1 [3]): –0.93 ± 0.01
fold difference between functional and binding assays (human CCR1 [4]): more than 130 fold
Hill slope, CCR2 (human CCR2 [5]): –1.20 ± 0.08
Molecule: O=C(C1=C(O)C(=O)N(c2ccc(Br)cc2F)C1c1cccc(Br)c1)C1CC1 (stereo not shown) [Compound 45, 1-(4-Bromo-2-fluorophenyl)-5-(3-bromophenyl)-4-(cyclopropanecarbonyl)-3-hydroxy-1,5-dihydro-2H-pyrrol-2-one]

Hill slope, CCR1 (human CCR1 [3]): –0.72 ± 0.08
fold higher potency as inverse agonist than as antagonist (human CCR1 [4]): ~10 fold
Hill slope, CCR2 (human CCR2 [5]): –0.88 ± 0.13
Molecule: CC(=O)C1=C(O)C(=O)N(c2ccc(Cl)c(C)c2)C1C1CCCCC1 (stereo not shown) [Compound 41, 4-Acetyl-1-(4-chloro-3-methylphenyl)-5-cyclohexyl-3-hydroxy-1,5-dihydro-2H-pyrrol-2-one]
